SMILES strings stand for the structures.

The test system of the first series is onychomycosis.
Experiment: not given
The settings on record: after nail removal; cited from earlier work.
Turning to `CC(=O)N1CCN(c2ccc(OCC3COC(Cn4ccnc4)(c4ccc(Cl)cc4Cl)O3)cc2)CC1` (stereo not drawn) [ketoconazole], the “Effectiveness in topically treating onychomycosis” value is reported as “effective”. As to `Clc1ccc(COC(Cn2ccnc2)c2ccc(Cl)cc2Cl)c(Cl)c1` (stereo not drawn) [miconazole], the “Effectiveness in topically treating onychomycosis” value is listed as “effective”.

Test system in the next series: not listed separately
As to the kind of experiment: pH measurement of acidifiers with a glass electrode. It counts as physicochemical. The conditions noted are these: after 1 min. An excerpt: Apparent pH is the pH reading measured by a glass pH electrode. The preferred acidifiers are 37% HCl, 10% HCl, sulfuric acid, o-phosphoric acid, nitric acid, acetic acid, L (+)-lactic acid, salicylic acid, and glycolic acid. The particularly preferred acidifiers are 37% HCl and 10% HCl. If the total weight of the acidified composition is 100 parts, the acidifier should be about 0.05 to about 50% w/w (w/w=weight/weight), preferably, from about 0.1% to about 10%, more preferably form about 0.5% to about 5%.
In turn, `C[C@H](O)C(=O)O` [L(+)-lactic acid] displayed a pH reading of 0.31.

As to `O=C(O)CO` [Glycolic Acid], the pH reading came out at 0.43. `O=C(O)c1ccccc1O` [Salicylic acid] came in with a pH reading of 2.92.

For the compound `CC(=O)O` [Acetic acid], the pH reading is -0.19 to -0.28.
